Drawing on US9340590B2 (priority 2011, dated 2016), this text covers IC50 for 7 molecules.

Test in all cases: cell-based
The target of experiment [1] is hNav1.5 (Homo sapiens, UniProt Q14524). Particulars: IonWorks Quattro, read-out: IWQ Use Nav1.5. A general note: The patch-clamp technique gives a direct electrical read-out from membranes.
The target of experiment [2] is hNav1.3 (Homo sapiens, UniProt Q9NY46). Particulars: IonWorks Quattro, read-out: IWQ Use Nav1.3.
The target in experiment [3] is hNav1.7 (Homo sapiens, UniProt Q15858). In kind it is cell-based.
[4] abbreviates: IonWorks Quattro, use-dependent block, hNav1.7, read-out: IWQ Use Nav1.7.

Like-named read-outs stand apart in the source and are kept apart here. Positions of bridges follow the written chain, without caps; N, C: chain ends. Non-standard residues stand in square brackets, D forms with d. Residues, ends and D or L forms follow the SMILES beside them. βAla = NCCC(=O)O

Chain of hNav1.3 (Q9NY46 whole entry, looked up): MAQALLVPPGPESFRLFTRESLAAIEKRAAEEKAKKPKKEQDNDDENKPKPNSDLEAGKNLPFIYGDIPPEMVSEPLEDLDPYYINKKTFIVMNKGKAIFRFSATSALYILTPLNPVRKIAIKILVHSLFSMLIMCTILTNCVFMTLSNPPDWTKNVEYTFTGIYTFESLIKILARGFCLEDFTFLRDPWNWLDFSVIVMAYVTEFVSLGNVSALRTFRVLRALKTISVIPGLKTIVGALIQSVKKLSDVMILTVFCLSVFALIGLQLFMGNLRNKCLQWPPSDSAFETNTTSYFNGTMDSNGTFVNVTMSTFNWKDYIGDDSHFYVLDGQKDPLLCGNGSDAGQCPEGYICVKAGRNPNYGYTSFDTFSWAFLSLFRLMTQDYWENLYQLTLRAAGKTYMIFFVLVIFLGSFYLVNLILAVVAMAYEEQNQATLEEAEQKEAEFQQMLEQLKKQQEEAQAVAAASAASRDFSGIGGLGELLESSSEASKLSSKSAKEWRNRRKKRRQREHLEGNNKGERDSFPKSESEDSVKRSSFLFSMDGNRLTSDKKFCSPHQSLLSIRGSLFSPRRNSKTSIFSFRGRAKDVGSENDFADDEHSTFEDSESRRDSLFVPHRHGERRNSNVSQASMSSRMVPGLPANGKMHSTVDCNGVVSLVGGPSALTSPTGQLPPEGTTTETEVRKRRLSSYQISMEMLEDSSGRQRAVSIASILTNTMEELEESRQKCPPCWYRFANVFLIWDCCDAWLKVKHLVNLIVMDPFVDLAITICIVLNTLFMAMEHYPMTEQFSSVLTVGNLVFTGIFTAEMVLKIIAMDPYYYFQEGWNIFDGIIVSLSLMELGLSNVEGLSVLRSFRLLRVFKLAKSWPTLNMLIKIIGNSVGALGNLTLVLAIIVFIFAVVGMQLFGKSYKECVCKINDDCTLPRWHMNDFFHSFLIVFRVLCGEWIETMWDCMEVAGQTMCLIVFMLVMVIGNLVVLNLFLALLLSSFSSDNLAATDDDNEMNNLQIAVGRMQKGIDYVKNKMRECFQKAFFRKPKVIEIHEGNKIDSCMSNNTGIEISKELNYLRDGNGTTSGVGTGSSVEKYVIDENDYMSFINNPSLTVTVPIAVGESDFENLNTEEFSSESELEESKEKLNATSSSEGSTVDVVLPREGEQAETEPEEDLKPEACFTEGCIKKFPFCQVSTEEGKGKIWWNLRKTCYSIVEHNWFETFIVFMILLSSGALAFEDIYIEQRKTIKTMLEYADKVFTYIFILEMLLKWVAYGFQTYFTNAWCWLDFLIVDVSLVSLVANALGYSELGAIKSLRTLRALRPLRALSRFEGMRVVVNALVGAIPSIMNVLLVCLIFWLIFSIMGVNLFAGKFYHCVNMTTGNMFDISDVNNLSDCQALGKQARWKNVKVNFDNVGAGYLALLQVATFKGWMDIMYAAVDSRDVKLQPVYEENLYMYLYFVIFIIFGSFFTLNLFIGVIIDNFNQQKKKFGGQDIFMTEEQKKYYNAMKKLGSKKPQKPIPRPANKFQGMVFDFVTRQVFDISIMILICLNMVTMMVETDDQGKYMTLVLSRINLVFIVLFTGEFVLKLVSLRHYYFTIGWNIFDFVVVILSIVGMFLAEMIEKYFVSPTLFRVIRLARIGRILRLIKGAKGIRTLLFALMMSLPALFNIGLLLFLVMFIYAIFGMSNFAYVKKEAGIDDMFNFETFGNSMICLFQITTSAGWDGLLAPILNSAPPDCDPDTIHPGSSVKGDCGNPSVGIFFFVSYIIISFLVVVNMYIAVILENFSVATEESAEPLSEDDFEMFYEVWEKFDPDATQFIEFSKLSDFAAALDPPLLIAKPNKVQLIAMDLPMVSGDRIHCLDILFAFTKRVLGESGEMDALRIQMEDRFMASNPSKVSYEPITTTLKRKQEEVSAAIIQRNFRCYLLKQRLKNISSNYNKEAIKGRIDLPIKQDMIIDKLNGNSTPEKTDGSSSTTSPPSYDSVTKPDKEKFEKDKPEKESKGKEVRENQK
Chain of hNav1.5 (Q14524 whole entry, looked up): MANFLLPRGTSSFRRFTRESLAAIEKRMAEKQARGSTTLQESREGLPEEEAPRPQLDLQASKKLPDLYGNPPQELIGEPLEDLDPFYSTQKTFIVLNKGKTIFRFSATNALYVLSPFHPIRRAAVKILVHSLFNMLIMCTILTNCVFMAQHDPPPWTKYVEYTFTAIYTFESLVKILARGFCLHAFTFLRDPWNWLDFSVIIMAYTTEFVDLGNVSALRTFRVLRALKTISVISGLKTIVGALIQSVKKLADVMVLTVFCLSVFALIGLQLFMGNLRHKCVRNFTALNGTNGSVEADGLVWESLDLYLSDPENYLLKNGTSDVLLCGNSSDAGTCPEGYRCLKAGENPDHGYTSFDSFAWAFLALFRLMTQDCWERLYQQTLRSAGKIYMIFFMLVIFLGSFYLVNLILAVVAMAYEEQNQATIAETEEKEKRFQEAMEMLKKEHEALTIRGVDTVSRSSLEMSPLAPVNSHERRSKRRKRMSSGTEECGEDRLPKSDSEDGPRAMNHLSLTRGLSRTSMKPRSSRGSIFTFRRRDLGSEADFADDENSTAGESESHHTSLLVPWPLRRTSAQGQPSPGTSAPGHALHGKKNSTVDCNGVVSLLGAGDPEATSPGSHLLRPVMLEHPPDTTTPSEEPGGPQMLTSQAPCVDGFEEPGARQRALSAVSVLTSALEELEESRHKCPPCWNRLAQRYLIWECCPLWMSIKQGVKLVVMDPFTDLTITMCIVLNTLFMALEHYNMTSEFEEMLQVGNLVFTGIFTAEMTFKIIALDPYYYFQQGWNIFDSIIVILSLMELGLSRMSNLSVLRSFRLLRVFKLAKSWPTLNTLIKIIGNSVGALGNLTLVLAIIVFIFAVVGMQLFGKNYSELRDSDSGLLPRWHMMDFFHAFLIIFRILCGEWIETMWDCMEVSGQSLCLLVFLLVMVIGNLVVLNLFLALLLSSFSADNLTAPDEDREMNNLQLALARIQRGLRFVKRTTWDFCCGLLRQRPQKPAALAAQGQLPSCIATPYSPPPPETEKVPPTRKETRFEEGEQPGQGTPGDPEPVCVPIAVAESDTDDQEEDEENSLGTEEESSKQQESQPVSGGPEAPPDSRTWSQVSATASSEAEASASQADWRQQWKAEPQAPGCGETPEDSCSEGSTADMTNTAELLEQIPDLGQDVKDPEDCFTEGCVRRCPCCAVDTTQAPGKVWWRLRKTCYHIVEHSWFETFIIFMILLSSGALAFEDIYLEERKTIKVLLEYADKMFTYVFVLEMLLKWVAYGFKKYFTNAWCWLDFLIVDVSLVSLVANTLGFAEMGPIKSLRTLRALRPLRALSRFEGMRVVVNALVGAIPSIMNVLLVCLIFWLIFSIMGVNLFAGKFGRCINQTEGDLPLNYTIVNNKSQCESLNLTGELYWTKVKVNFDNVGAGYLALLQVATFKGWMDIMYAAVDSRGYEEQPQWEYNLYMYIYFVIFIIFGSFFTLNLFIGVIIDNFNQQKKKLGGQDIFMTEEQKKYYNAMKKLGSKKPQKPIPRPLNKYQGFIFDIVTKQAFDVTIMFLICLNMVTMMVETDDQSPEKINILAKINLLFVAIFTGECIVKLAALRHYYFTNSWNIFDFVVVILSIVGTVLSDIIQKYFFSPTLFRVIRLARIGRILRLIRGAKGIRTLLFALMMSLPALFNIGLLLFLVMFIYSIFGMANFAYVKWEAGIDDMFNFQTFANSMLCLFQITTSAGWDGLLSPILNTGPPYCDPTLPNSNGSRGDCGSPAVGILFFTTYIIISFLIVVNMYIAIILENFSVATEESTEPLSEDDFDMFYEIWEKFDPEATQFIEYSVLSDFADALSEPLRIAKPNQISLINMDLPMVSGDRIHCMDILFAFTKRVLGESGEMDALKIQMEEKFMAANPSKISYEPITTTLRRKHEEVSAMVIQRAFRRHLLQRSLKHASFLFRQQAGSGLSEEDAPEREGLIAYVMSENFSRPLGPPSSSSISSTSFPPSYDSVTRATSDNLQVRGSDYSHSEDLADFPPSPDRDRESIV

Take `CC[C@H](C)[C@@H]1NC(=O)[C@@H]2CSSC[C@@H]3NC(=O)[C@H](C(C)C)NC(=O)[C@H](CC(C)C)NC(=O)[C@H](CC(N)=O)NC(=O)[C@@H]4CCCN4C(=O)[C@H](CCCNC(=N)N)NC(=O)[C@H](CSSC[C@H](NC(=O)[C@@H](N)CC(=O)O)C(=O)N[C@@H](CC(C)C)C(=O)NCC(=O)NCCC(=O)N[C@@H](Cc4ccccc4)C(=O)N[C@@H](CCCNC(=N)N)C(=O)N[C@@H](CCCCN)C(=O)N2)NC(=O)[C@H](CSSC[C@@H](C(=O)N[C@@H](CCCCN)C(=O)N[C@@H](Cc2ccc(O)cc2)C(=O)N[C@H](C(=O)N[C@@H](Cc2ccccc2)C(N)=O)C(C)C)NC(=O)[C@H](Cc2c[nH]c4ccccc24)NC(=O)[C@H](CCCCN)NC(=O)[C@H](Cc2c[nH]cn2)NC(=O)[C@H]([C@@H](C)O)NC(=O)[C@H](CCCNC(=N)N)NC(=O)[C@H](CO)NC3=O)NC(=O)[C@H](CCCCN)NC(=O)[C@H](CC(=O)O)NC(=O)[C@H](CC(N)=O)NC(=O)[C@H](CC(=O)O)NC(=O)[C@@H]2CCCN2C1=O` [compound 603] (H-DCLG[βAla]FRKCIPDNDKCCRPNLVCSRTHKWCKYVF-NH2; disulfide 2-17, 9-23, 16-30): the IC50 is 9.5 µM in experiment [1] (use-dependent block, hNav1.5); 11800 nM in experiment [2] (use-dependent block, hNav1.3); 15300 nM in experiment [3] (setting [4]).
The like results for `CC[C@H](C)[C@@H]1NC(=O)[C@@H]2CSSC[C@@H]3NC(=O)[C@H](C(C)C)NC(=O)[C@H](CC(C)C)NC(=O)[C@H](CC(N)=O)NC(=O)[C@@H]4CCCN4C(=O)[C@H](CCCNC(=N)N)NC(=O)[C@H](CSSC[C@H](NC(=O)[C@@H](N)CC(=O)O)C(=O)N[C@@H](CC(C)C)C(=O)NCC(=O)N[C@@H](C)C(=O)N[C@@H](CCSC)C(=O)N[C@@H](CCCNC(=N)N)C(=O)N[C@@H](CCCCN)C(=O)N2)NC(=O)[C@H](CSSC[C@@H](C(=O)N[C@@H](CCCCN)C(=O)N[C@@H](Cc2ccc(O)cc2)C(=O)N[C@H](C(=O)N[C@@H](Cc2ccccc2)C(N)=O)C(C)C)NC(=O)[C@H](Cc2c[nH]c4ccccc24)NC(=O)[C@H](CCCCN)NC(=O)[C@H](Cc2c[nH]cn2)NC(=O)[C@H]([C@@H](C)O)NC(=O)[C@H](CCC(=O)O)NC(=O)[C@H](CO)NC3=O)NC(=O)[C@H](CCCCN)NC(=O)[C@H](CC(=O)O)NC(=O)[C@H](CC(N)=O)NC(=O)[C@H](CC(=O)O)NC(=O)[C@@H]2CCCN2C1=O` [compound 438] were, in that order, 18.2 µM, 5950 nM and 5500 nM.
The like results for `CSCC[C@@H]1NC(=O)[C@H](Cc2ccccc2)NC(=O)CNC(=O)[C@H](CC(C)C)NC(=O)[C@@H](NC(=O)[C@H](CC(=O)O)NC(=O)[C@@H](N)Cc2c[nH]c3ccccc23)CSSC[C@@H]2NC(=O)[C@@H]3CSSC[C@@H](C(=O)N[C@@H](CCCCN)C(=O)N[C@@H](Cc4ccc(O)cc4)C(=O)N[C@H](C(=O)N[C@@H](Cc4ccccc4)C(N)=O)C(C)C)NC(=O)[C@H](Cc4c[nH]c5ccccc45)NC(=O)[C@H](CCCCN)NC(=O)[C@H](Cc4c[nH]cn4)NC(=O)[C@H]([C@@H](C)O)NC(=O)[C@H](CCCNC(=N)N)NC(=O)[C@H](CO)NC(=O)[C@H](CSSC[C@H](NC(=O)[C@H](CCCCN)NC(=O)[C@H](CCCNC(=N)N)NC1=O)C(=O)N[C@@H](Cc1cccc4ccccc14)C(=O)N1CCC[C@H]1C(=O)N[C@@H](CC(=O)O)C(=O)N[C@@H](CC(N)=O)C(=O)N[C@@H](CC(=O)O)C(=O)N[C@@H](CCCCN)C(=O)N3)NC(=O)[C@H](C(C)C)NC(=O)[C@H](CC(C)C)NC(=O)[C@H](CC(N)=O)NC(=O)[C@@H]1CCCN1C(=O)[C@H](CCCNC(=N)N)NC2=O` [compound 464] were, in that order, > 5 µM, 220 nM and 200 nM.
For `CC[C@H](C)[C@@H]1NC(=O)[C@@H]2CSSC[C@@H]3NC(=O)[C@H](C(C)C)NC(=O)[C@H](CC(C)C)NC(=O)[C@H](CC(N)=O)NC(=O)[C@@H]4CCCN4C(=O)[C@H](CCCNC(=N)N)NC(=O)[C@H](CSSC[C@H](NC(=O)[C@@H](N)CC(=O)O)C(=O)N[C@@H](CC(C)C)C(=O)NCC(=O)N[C@@H](Cc4ccccc4)C(=O)N[C@@H](CCSC)C(=O)N[C@@H](CCCNC(=N)N)C(=O)N[C@@H](CCCCN)C(=O)N2)NC(=O)[C@H](CSSC[C@@H](C(=O)N[C@@H](CCCCN)C(=O)N[C@@H](Cc2ccc(O)cc2)C(=O)N[C@H](C(=O)N[C@@H](Cc2ccccc2)C(N)=O)C(C)C)NC(=O)[C@H](Cc2c[nH]c4ccccc24)NC(=O)[C@H](CCCCN)NC(=O)[C@H](Cc2cnc[nH]2)NC(=O)[C@H]([C@@H](C)O)NC(=O)[C@H](CCCNC(=N)N)NC(=O)[C@H](CO)NC3=O)NC(=O)[C@H](CCCCN)NC(=O)[C@H](CC(=O)O)NC(=O)[C@H](CC(N)=O)NC(=O)[C@H](CC(=O)O)NC(=O)[C@H](Cc2c[nH]c3ccccc23)NC1=O` [SEQ ID NO: 171, [Trp11]GpTx-1] (H-DCLGFMRKCIWDNDKCCRPNLVCSRTHKWCKYVF-NH2; disulfide 2-17, 9-23, 16-30), the IC50 in experiment [1] (Use) stood at 9.5 µM; in experiment [2] (Use), 40 nM; in experiment [3] (IonWorks Quattro, Use, read-out: IWQ Use Nav1.7), 70 nM.
As for `CC[C@H](C)[C@@H]1NC(=O)[C@@H]2CSSC[C@@H]3NC(=O)[C@H](C(C)C)NC(=O)[C@H](CC(C)C)NC(=O)[C@H](CC(N)=O)NC(=O)[C@@H]4CCCN4C(=O)[C@H](CCCNC(=N)N)NC(=O)[C@H](CSSC[C@H](NC(=O)[C@@H](N)CC(=O)O)C(=O)N[C@@H](CC(C)C)C(=O)NCC(=O)N[C@@H](Cc4ccccc4)C(=O)N[C@@H](CCSC)C(=O)N[C@@H](CCCNC(=N)N)C(=O)N[C@@H](CCCCN)C(=O)N2)NC(=O)[C@H](CSSC[C@@H](C(=O)N[C@@H](CCCCN)C(=O)N[C@@H](Cc2ccc(O)cc2)C(=O)N[C@H](C(=O)N[C@@H](Cc2ccccc2)C(N)=O)C(C)C)NC(=O)[C@H](Cc2c[nH]c4ccccc24)NC(=O)[C@H](CCCCN)NC(=O)[C@H](Cc2c[nH]cn2)NC(=O)[C@H]([C@@H](C)O)NC(=O)[C@H](CCCNC(=N)N)NC(=O)[C@H](CO)NC3=O)NC(=O)[C@H](CCC(=O)O)NC(=O)[C@H](CC(=O)O)NC(=O)[C@H](CC(N)=O)NC(=O)[C@H](CC(=O)O)NC(=O)[C@@H]2CCCN2C1=O` [compound 28] (H-DCLGFMRKCIPDNDECCRPNLVCSRTHKWCKYVF-NH2; disulfide 2-17, 9-23, 16-30), the values for the IC50 in experiment [1] (Use), in experiment [2] (Use) and in experiment [3] were 12.1 µM, 490 nM and 590 nM, respectively.
For `CC[C@H](C)[C@@H]1NC(=O)[C@@H]2CSSC[C@@H]3NC(=O)[C@H](C(C)C)NC(=O)[C@H](CC(C)C)NC(=O)[C@H](CC(N)=O)NC(=O)[C@@H]4CCCN4C(=O)[C@H](CCCNC(=N)N)NC(=O)[C@H](CSSC[C@H](NC(=O)[C@@H](N)CC(=O)O)C(=O)N[C@@H](CC(C)C)C(=O)NCC(=O)N[C@@H](Cc4ccccc4)C(=O)N[C@@H](CCSC)C(=O)N[C@@H](CCCNC(=N)N)C(=O)N[C@@H](CCCCN)C(=O)N2)NC(=O)[C@H](CSSC[C@@H](C(=O)N[C@@H](CCCCN)C(=O)N[C@@H](Cc2ccc(O)cc2)C(=O)N[C@H](C(=O)N[C@@H](Cc2ccccc2)C(N)=O)C(C)C)NC(=O)[C@H](Cc2c[nH]c4ccccc24)NC(=O)[C@H](CCCCN)NC(=O)[C@H](CCC(=O)O)NC(=O)[C@H]([C@@H](C)O)NC(=O)[C@H](CCCNC(=N)N)NC(=O)[C@H](CO)NC3=O)NC(=O)[C@H](CCCCN)NC(=O)[C@H](CC(=O)O)NC(=O)[C@H](CC(N)=O)NC(=O)[C@H](CC(=O)O)NC(=O)[C@@H]2CCCN2C1=O` [compound 29] (H-DCLGFMRKCIPDNDKCCRPNLVCSRTEKWCKYVF-NH2; disulfide 2-17, 9-23, 16-30), the IC50 is 15.2 µM in experiment [1] (Table 23, use, […]); 12300 nM in experiment [2] (Table 23, use, […]); 8540 nM in experiment [3] (Table 23, IonWorks Quattro, use, […], read-out: IWQ Use Nav1.7).
As for `CC[C@H](C)[C@@H]1NC(=O)[C@@H]2CSSC[C@@H]3NC(=O)[C@H](C(C)C)NC(=O)[C@H](CC(C)C)NC(=O)[C@H](CC(N)=O)NC(=O)[C@@H]4CCCN4C(=O)[C@H](CCCNC(=N)N)NC(=O)[C@H](CSSC[C@H](NC(=O)[C@@H](N)CC(=O)O)C(=O)N[C@@H](CC(C)C)C(=O)NCC(=O)N[C@@H](C)C(=O)N[C@@H](Cc4ccccc4)C(=O)N[C@@H](CCCNC(=N)N)C(=O)N[C@@H](CCCCN)C(=O)N2)NC(=O)[C@H](CSSC[C@@H](C(=O)N[C@@H](CCCCN)C(=O)N[C@@H](Cc2ccc(O)cc2)C(=O)N[C@H](C(=O)N[C@@H](Cc2ccccc2)C(N)=O)C(C)C)NC(=O)[C@H](Cc2c[nH]c4ccccc24)NC(=O)[C@H](CCCCN)NC(=O)[C@H](Cc2c[nH]cn2)NC(=O)[C@H]([C@@H](C)O)NC(=O)[C@H](CCCNC(=N)N)NC(=O)[C@H](CO)NC3=O)NC(=O)[C@H](CCCCN)NC(=O)[C@H](CC(=O)O)NC(=O)[C@H](CC(N)=O)NC(=O)[C@H](CCC(=O)O)NC(=O)[C@@H]2CCCN2C1=O` [compound 703] (H-DCLGAFRKCIPENDKCCRPNLVCSRTHKWCKYVF-NH2; disulfide 2-17, 9-23, 16-30), the IC50 in experiment [1] (use-dependent protocol, hNav1.5) was found to be 45 µM; in experiment [2] (use-dependent protocol, hNav1.3), 200 nM; in experiment [3] (IonWorks Quattro, use-dependent protocol, hNav1.7, read-out: IWQ Use Nav1.7) it was 610 nM.
